Data from PubChem BioAssay (NCI).
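Tested at 5 concentrations; 48 h exposure; 96-well plates; endpoints linearly interpolated, else capped at highest concentration. Definition used: TGI = concentration required for complete inhibition of growth.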

Columns and labels:
Assay in all cases: DTP human tumour cell line panel, 48 h
EKVX NSCLC = tested on: EKVX NSCLC
HOP-92 NSCLC = tested on: HOP-92 NSCLC
IGROV1 ovarian = tested on: IGROV1 ovarian
LOX IMVI melanoma = tested on: LOX IMVI melanoma
MDA-MB-435 = tested on: MDA-MB-435
MDA-N = tested on: MDA-N
NCI-H226 lung = tested on: NCI-H226 lung
OVCAR-5 ovarian = tested on: OVCAR-5 ovarian
PC-3 prostate = tested on: PC-3 prostate
SK-OV-3 ovarian = tested on: SK-OV-3 ovarian
T-47D breast = tested on: T-47D breast
UACC-62 melanoma = tested on: UACC-62 melanoma
UO-31 renal = tested on: UO-31 renal

Measured: TGI

Cn1c2ccccc2c(=O)c2[nH]c3ccccc3c21
> 100 µM: all assays above

CCc1n[nH]c(=O)n1CCO
> 100 µM: all assays above
